Measurements reported in ChEMBL document CHEMBL4411260, “Dual Inhibition of TYK2 and JAK1 for the Treatment of Autoimmune Diseases: Discovery of (( S)-2,2-Difluorocyclopropyl)((1 R,5 S)-3-(2-((1-methyl-1 H-pyrazol-4-yl)amino)pyrimidin-4-yl)-3,8-diazabicyclo[3.2.1]octan-8-yl)methanone (PF-06700841)” (J Med Chem, 2018).

Key:
physchem = details: octanol/water phosphate buffer, pH 7.4
[1] = biological target: T1, Non-receptor tyrosine-protein kinase TYK2 (Homo sapiens, UniProt P29597); experiment: Inhibition of human TYK2 using fluorescence labeled peptide as substrate and using ATP at its Km level by microfluidic based mobility shift assay
T1 sequence (P29597 whole entry): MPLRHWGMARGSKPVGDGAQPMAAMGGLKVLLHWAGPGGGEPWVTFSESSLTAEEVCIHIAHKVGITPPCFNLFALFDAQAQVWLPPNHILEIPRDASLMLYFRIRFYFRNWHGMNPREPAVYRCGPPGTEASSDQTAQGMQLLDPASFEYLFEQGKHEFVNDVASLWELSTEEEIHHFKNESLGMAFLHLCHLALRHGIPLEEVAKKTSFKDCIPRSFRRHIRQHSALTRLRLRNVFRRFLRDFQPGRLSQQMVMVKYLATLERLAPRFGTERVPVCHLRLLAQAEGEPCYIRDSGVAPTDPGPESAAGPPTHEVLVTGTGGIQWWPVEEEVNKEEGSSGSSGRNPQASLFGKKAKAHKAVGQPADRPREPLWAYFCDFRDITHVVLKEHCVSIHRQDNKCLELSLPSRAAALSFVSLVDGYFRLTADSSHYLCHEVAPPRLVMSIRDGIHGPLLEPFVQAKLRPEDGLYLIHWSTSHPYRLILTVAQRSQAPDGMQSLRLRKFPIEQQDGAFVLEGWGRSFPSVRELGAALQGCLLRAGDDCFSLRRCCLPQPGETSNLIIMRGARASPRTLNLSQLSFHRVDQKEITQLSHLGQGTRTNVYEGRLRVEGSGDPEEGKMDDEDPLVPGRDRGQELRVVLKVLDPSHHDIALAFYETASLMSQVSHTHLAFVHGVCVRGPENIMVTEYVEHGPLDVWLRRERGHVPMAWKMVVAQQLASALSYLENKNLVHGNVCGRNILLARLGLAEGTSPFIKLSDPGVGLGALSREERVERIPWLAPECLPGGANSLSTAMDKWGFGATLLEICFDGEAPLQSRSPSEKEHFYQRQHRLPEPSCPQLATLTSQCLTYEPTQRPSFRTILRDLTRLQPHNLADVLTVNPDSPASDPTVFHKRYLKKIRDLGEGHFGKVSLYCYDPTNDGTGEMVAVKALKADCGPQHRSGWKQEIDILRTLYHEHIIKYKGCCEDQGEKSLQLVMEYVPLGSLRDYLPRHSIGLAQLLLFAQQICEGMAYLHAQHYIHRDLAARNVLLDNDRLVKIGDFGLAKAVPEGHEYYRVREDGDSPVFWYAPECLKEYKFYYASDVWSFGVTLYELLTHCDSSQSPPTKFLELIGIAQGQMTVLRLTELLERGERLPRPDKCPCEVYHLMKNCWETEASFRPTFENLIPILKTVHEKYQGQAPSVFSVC

[2] = biological target: T1, Non-receptor tyrosine-protein kinase TYK2
[3] = biological target: T2, Tyrosine-protein kinase JAK1 (Homo sapiens, UniProt P23458); experiment: Inhibition of human JAK1 using fluorescence labeled peptide as substrate and using ATP at its Km level by microfluidic based mobility shift assay
T2 sequence (P23458 whole entry): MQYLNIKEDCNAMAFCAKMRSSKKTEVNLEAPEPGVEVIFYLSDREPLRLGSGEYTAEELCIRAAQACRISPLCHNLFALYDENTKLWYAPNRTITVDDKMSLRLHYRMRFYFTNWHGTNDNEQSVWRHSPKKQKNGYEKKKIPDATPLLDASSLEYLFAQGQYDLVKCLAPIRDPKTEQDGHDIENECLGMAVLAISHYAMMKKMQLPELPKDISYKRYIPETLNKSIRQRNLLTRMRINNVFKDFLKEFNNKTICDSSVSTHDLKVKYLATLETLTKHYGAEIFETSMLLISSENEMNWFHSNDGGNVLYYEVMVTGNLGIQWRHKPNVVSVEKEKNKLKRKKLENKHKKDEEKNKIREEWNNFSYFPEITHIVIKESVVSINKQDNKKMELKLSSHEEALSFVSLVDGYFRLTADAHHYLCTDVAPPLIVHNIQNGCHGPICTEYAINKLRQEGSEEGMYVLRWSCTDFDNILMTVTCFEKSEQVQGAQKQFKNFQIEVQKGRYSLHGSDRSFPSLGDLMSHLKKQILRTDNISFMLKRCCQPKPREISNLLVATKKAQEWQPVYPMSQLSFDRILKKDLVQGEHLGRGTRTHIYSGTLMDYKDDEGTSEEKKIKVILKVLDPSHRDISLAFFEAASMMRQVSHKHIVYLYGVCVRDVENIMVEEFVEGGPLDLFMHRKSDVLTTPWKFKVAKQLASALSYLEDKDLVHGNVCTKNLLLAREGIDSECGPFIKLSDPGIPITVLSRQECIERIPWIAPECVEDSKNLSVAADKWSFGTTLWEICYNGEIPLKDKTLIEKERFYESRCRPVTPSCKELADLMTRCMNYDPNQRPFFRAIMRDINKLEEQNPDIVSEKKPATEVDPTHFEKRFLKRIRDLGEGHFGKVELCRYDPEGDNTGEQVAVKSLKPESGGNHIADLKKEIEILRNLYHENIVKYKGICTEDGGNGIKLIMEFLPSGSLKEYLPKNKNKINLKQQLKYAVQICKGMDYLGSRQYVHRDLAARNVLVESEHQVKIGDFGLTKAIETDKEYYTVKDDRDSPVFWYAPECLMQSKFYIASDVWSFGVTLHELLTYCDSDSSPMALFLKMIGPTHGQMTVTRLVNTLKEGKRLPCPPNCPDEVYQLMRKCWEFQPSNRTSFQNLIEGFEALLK

[4] = biological target: T3, Tyrosine-protein kinase JAK2 (Homo sapiens, UniProt O60674)
T3 sequence (O60674 whole entry): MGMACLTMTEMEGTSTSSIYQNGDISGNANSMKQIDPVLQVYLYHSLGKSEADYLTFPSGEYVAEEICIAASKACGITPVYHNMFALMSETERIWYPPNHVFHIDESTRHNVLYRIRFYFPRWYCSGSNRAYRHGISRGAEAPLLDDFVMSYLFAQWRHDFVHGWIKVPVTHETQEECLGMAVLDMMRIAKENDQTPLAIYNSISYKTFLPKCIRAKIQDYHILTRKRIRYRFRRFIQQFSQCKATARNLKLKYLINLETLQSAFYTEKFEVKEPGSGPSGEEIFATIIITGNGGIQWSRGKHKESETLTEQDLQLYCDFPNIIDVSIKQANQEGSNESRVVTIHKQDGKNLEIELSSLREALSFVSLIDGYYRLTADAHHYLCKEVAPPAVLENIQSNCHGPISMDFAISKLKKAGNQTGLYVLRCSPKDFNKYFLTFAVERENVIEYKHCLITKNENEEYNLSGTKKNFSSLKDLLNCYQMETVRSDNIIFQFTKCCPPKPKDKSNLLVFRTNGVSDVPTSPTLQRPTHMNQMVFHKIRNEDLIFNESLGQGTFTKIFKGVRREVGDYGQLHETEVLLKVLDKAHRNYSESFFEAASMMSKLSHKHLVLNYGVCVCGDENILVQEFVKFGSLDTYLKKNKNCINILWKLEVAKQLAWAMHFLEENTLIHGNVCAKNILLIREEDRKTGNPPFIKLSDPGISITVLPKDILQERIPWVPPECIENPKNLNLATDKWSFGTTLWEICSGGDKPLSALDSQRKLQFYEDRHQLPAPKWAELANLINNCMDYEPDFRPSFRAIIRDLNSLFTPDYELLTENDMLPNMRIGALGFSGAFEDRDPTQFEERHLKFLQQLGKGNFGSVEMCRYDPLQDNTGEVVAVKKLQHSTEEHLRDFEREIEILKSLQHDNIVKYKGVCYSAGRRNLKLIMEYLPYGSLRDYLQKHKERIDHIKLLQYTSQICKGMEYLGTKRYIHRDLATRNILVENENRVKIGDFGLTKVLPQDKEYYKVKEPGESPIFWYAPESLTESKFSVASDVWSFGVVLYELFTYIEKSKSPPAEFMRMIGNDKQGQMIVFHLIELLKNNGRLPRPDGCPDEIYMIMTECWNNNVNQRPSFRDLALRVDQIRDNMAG

[5] = biological target: T3, Tyrosine-protein kinase JAK2; experiment: Inhibition of human JAK2 using fluorescence labeled peptide as substrate and using ATP at its Km level by microfluidic based mobility shift assay
[6] = biological target: T2, Tyrosine-protein kinase JAK1
[7] = biological target: T4, Tyrosine-protein kinase JAK3 (Homo sapiens, UniProt P52333)
T4 sequence (P52333 whole entry): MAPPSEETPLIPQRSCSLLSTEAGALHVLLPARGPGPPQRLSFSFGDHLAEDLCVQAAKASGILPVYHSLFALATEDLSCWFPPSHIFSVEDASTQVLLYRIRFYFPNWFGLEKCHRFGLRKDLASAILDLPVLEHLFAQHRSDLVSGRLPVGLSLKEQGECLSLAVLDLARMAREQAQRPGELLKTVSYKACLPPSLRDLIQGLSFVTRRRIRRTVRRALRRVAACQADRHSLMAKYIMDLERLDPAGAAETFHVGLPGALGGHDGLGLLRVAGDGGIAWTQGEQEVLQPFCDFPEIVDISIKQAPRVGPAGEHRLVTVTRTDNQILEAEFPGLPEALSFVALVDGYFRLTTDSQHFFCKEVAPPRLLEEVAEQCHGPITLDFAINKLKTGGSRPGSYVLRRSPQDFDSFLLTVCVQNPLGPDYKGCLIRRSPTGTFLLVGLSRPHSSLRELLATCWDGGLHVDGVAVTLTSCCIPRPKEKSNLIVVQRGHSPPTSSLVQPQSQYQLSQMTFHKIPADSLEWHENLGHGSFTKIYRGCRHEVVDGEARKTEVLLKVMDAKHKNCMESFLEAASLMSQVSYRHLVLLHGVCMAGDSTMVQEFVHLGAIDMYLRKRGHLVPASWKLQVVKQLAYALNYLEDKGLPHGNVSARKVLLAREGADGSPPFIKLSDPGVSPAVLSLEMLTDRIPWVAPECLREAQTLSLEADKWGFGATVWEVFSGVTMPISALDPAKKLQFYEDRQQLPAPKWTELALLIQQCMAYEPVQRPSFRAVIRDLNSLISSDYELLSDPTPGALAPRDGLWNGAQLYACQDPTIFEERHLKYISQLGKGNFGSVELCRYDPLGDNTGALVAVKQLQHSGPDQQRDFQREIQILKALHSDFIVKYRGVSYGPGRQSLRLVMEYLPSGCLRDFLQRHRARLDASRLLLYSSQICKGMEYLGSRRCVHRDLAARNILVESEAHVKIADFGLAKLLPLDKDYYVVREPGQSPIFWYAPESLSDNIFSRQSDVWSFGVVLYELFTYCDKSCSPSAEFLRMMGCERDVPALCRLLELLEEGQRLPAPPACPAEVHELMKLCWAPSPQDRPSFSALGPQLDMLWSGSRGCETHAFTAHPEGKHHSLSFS

[8] = biological target: T4, Tyrosine-protein kinase JAK3; experiment: Inhibition of human JAK3 using fluorescence labeled peptide as substrate and using ATP at its Km level by microfluidic based mobility shift assay
[9] = Passive apparent permeability from apical to basolateral side in RRCK cells; format: ADME, cell-based, Canis lupus familiaris, MDCKII-LE; details: dog, MDCK
[10] = biological target: T3, Tyrosine-protein kinase JAK2; remark: listed apart in the source
[11] = biological target: T3, Tyrosine-protein kinase JAK2; remark: listed apart in the source
JAK1/TYK2 [12] = biological target: T5, JAK1/TYK2 (Homo sapiens, UniProt P23458+P29597); experiment: Inhibition of JAK1/TYK2 signaling pathway in human lymphocytes of whole blood assessed as reduction in IFN-alpha induced STAT3 phosphorylation preincubated for 45 mins followed by IFN-alpha addition and measured measured after 15 mins by FACS assay; format: cell-based
T5 sequence (P23458 whole entry): as the sequence (P23458 whole entry) above
T5 sequence (P29597 whole entry): as the sequence (P29597 whole entry) above

JAK1/TYK2 [13] = biological target: T5, JAK1/TYK2

SMILES	logD (physchem)	IC50 [2]	IC50 [4]	IC50 [6]	IC50 [7]	fIC50 [10]	fIC50 (JAK1/TYK2 [13])	further results
CCNC(=O)c1ccc(Nc2ncc(F)c(N3CC4CC[C@H](C3)N4C(=O)C3CC3)n2)nc1 (single isomer, unassigned)	2.71	7.2 µM	> 10 µM	> 10 µM	> 10 µM			Papp A→B [9]: 5.6 to 18.8 ×10⁻⁶ cm/s
CCNC(=O)c1ccc(Nc2nccc(N3CCN(C(=O)CC#N)CC3)n2)cc1								IC50 [1]: 0.368 µM; IC50 [3]: 3.06 µM; IC50 [5]: 1.08 µM; IC50 [8]: 8.74 µM
Cn1cc(Nc2nccc(N3CC4CC[C@H](C3)N4C(=O)NCC#N)n2)cn1 (single isomer, unassigned)	0.97					28 nM	73 nM	Papp A→B [9]: 0.6 ×10⁻⁶ cm/s
Cn1cc(Nc2ncc(F)c(N3CC4CC[C@H](C3)N4C(=O)C3CC3)n2)cn1 (single isomer, unassigned)	2.13	0.053 µM	0.488 µM	0.076 µM	2.88 µM	8 nM	84 nM	Papp A→B [9]: 5.6 to 18.8 ×10⁻⁶ cm/s; IC50 [11]: 6.28 µM; IC50 (JAK1/TYK2 [12]): 0.144 µM
CCNC(=O)c1ccc(Nc2nccc(N3CC4CC[C@H](C3)N4C(=O)C3CC3)n2)cc1 (single isomer, unassigned)	1.86							
CCNC(=O)c1ccc(Nc2nccc(N3C[C@@H]4C[C@H]3CN4C(=O)C3CC3)n2)cc1	1.96	1.74 µM	> 10 µM	> 9.52 µM	> 10 µM			
Cn1cc(Nc2nccc(N3CC4CC[C@H](C3)N4C(=O)NCC(F)(F)F)n2)cn1 (single isomer, unassigned)	1.72	0.028 µM	0.146 µM	0.014 µM	6.87 µM	15 nM	26 nM	IC50 [11]: 1.16 µM; IC50 (JAK1/TYK2 [12]): 0.051 µM
CCNC(=O)c1ccc(Nc2nccc(N3C[C@H]4C[C@@H](C3)N4C(=O)C3CC3)n2)cc1	2.15							
Cn1cc(Nc2nccc(N3CC4CC[C@H](C3)N4C(=O)[C@H]3CC3(F)F)n2)cn1 (single isomer, unassigned)	1.55							
CCNC(=O)N1C2CC[C@@H]1CN(c1ccnc(Nc3cnn(C)c3)n1)C2 (single isomer, unassigned)	1.44					14 nM	60 nM	
CCNC(=O)c1ccc(Nc2ncc(F)c(N3CC4CC[C@H](C3)N4C(=O)C3CC3)n2)cc1 (single isomer, unassigned)	2.88							

The next lines start with results.

logD (physchem)	IC50 [2]	IC50 [4]	IC50 [6]	IC50 [7]	fIC50 [10]	fIC50 (JAK1/TYK2 [13])	SMILES	further results
0.9	0.774 µM	> 9.97 µM	3.71 µM	> 10 µM			CCNC(=O)c1ccc(Nc2nccc(N3C[C@@H]4C[C@H]3CN4C(=O)CC#N)n2)cc1	IC50 [1]: 0.023 µM; IC50 [3]: 0.358 µM; IC50 [5]: 0.366 µM; IC50 [8]: > 4.95 µM
3.21	0.048 µM	0.692 µM	0.234 µM	4.96 µM	11 nM	91 nM	CCNC(=O)c1ncc(Nc2ncc(F)c(N3CC4CC[C@H](C3)N4C(=O)C3CC3)n2)cc1C (single isomer, unassigned)	Papp A→B [9]: 5.6 to 18.8 ×10⁻⁶ cm/s; IC50 [11]: 12.2 µM; IC50 (JAK1/TYK2 [12]): 0.385 µM
1.52					11 nM	91 nM	Cn1cc(Nc2nccc(N3CC4CC[C@H](C3)N4C(=O)C3CC3)n2)cn1 (single isomer, unassigned)	
0.9							CCNC(=O)c1ccc(Nc2nccc(N3C[C@H]4C[C@@H]3CN4C(=O)CC#N)n2)cc1	IC50 [1]: 2.69 µM; IC50 [3]: 7.18 µM; IC50 [5]: > 4.22 µM; IC50 [8]: > 10 µM
1.78					10 nM	70 nM	O=C(C1CC1)N1C2CC[C@@H]1CN(c1nc(Nc3cnn(CCO)c3)ncc1F)C2 (single isomer, unassigned)	Papp A→B [9]: 5.6 to 18.8 ×10⁻⁶ cm/s
2.16	0.148 µM	2.78 µM	0.748 µM	> 10 µM			CCNC(=O)c1ccc(Nc2nccc(N3C[C@@H]4CC[C@H]3CN4C(=O)C3CC3)n2)cc1	
